According to paper PMC6208908, “Field template-based design and biological evaluation of new sphingosine kinase 1 inhibitors” (Breast Cancer Research and Treatment, 2018):

Experiments:
recombinant SK2 = target: T1, recombinant SK2 (Homo sapiens, UniProt Q9NRA0); assay: SK2 activity assay with recombinant SK2 (high salt), Lineweaver-Burk; format: biochemical; conditions: Lineweaver-Burk plot, high salt (Figure S8B)
T1 sequence (Q9NRA0 1-654): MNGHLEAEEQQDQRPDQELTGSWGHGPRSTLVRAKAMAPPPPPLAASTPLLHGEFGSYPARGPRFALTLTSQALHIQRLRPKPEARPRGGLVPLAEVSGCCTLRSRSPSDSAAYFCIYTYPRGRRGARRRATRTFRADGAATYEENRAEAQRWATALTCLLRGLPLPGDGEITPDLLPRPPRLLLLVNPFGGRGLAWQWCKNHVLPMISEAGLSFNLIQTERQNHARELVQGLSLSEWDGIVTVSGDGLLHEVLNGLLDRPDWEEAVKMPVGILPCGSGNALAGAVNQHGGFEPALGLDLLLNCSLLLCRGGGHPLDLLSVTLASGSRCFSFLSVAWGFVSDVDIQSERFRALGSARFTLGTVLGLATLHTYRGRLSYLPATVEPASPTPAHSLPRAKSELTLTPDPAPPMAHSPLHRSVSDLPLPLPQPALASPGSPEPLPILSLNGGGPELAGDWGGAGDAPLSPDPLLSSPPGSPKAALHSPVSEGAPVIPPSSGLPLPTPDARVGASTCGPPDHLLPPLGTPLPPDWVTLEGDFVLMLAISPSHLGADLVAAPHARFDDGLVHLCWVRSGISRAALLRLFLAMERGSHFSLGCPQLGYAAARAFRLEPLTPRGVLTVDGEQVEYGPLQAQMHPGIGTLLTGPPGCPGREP
Description: SK assay was performed using radiolabeling as previously described, in conditions favouring SK1 or SK2 activity as required.
SK1 activity was determined in the presence of triton X-100 and SK2 activity was measured in the presence of high salt concentrations, conditions that favour SK1 and SK2, respectively. […] Km for SK1 was 6.97 ± 1.20 µM, Vmax 98 ± 4 µM/min/mg protein and Ki for SK-F 0.46 ± 0.1 µM. […] Some SK inhibitors such as SKI-II were previously shown to induce proteasomal degradation of SK1 [48, 49].

SK1 protein = SK1 protein level (Figure S9); format: cell-based
[1] = test system: 4T1 breast cancer allografts; assay: 4T1 breast cancer allograft, tumour volume; format: in vivo, BALB/c nude mice; conditions: 5 mg/kg each drug i.p. twice a week for 2 weeks; control 468 mm^3
Description: Breast cancer allografts were established in 6–8-week-old BALB/c nude mice by injection of 10^6 4T1 cells into their mammary pad. Two weeks after implantation, mice were randomised into treatment groups (n = 6/group) and treated twice a week for 2 weeks with intraperitoneal injections of dimethyl sulfoxide (DMSO), 5 mg/kg DTX, 5 mg/kg SK-F, 5 mg/kg DTX + 5 mg/kg SK-F. One day after the last treatment, all mice were euthanized and blood was collected. Tumour long and short radii were measured using calipers and tumour volume (v) was calculated using the formula v = 4/3 πab^2 (a – long radius, b – short radius). Mice and individual organs were weighed and primary tumours were then processed for analysis of SK1 activity as described above. Full blood count and liver function test analysis was done in the Hammersmith hospital biochemical lab. […]
Fig. 5 Effect of compound SK-F on breast tumour growth and SK1 activity. […] Two weeks after implantation, mice were randomised into treatment groups (n = 6/group) and treated twice a week for 2 weeks with intraperitoneal injections of: DMSO, 5 mg/kg DTX, 5 mg/kg SK-F, 5 mg/kg DTX + 5 mg/kg SK-F. a Tumour volume in the different treatment groups of 4T1 breast cancer implanted in mouse mammary fat pad. b SK1 activity in tumours was measured using radiolabelling. […]

[2] = Liver function tests in treated mice; format: in vivo, BALB/c nude mice; conditions: 5 mg/kg each drug i.p. twice a week for 2 weeks, compared with DTX
Description: Breast cancer allografts were established in 6–8-week-old BALB/c nude mice by injection of 10^6 4T1 cells into their mammary pad. Two weeks after implantation, mice were randomised into treatment groups (n = 6/group) and treated twice a week for 2 weeks with intraperitoneal injections of dimethyl sulfoxide (DMSO), 5 mg/kg DTX, 5 mg/kg SK-F, 5 mg/kg DTX + 5 mg/kg SK-F. One day after the last treatment, all mice were euthanized and blood was collected. Tumour long and short radii were measured using calipers and tumour volume (v) was calculated using the formula v = 4/3 πab^2 (a – long radius, b – short radius). Mice and individual organs were weighed and primary tumours were then processed for analysis of SK1 activity as described above. Full blood count and liver function test analysis was done in the Hammersmith hospital biochemical lab.
Fig. 6 Liver function tests of mice treated with SK-F and docetaxel (DTX). Breast cancer allografts were established in BALB/c nude mice by injection of 4T1 cells into their mammary pad. Two weeks after implantation, mice were randomised into treatment groups (n = 6/group) and treated twice a week for two weeks with intraperitoneal injections of: DMSO, 5 mg/kg DTX, 5 mg/kg SK-F, 5 mg/kg DTX + 5 mg/kg SK-F. a Alanine transaminases (ALT). b Bilirubin. c Aspartate transaminase (AST). d Albumin. e Alkaline phosphatase (ALP). f Total protein. Columns, mean of n = 6 animals normalised to control; bars, SEM. (*p < 0.05; **p < 0.01)

CCCCCCCCc1ccc(NC(=O)c2ccccc2)cc1 [SK-F]
inhibition of SK2 (recombinant SK2): no inhibition
effect on SK1 protein (SK1 protein): did not induce any change
tumour volume at the end of the study [1]: 371 mm^3
liver function test toxicity profile [2]: milder toxicity profile
